# From US8563587B2, “Methods and compositions for treating fish diseases” (HaloSource, Inc., priority 2006, dated 2013)
# How the values were obtained:
# [1] = TAC measured in the fish tanks of Comparative Example 2; format: physicochemical; conditions: 10 minutes after addition of 300 mg MC in 95% EtOH diluted to 100 mL
# Procedure: (§1) The fish were allowed to acclimate with their surroundings for a period of three days. For the experimental tanks, 300 mg of MC dissolved in 30 g 95% EtOH followed by dilution to 100 mLs total volume with DI water was added. For the control tanks 30 g 95% EtOH diluted to 100 mLs total volume with DI water was added. TAC was measured in the experimental tanks 10 minutes after the addition of the MC solution: HEX-2=7.1 ppm TAC; HEX-4=6.0 ppm TAC. Within three hours, all 11 of the Glow Lite Tetras were dead and 3 out of 5 Black Skirt Tetras were dead.
# (§2) The fish were allowed to acclimate with their surroundings for a period of 4 hours. All tanks began with 0 ppm TAC. Tablets of MC made from 0.11 g MC pressed with 0.89 g MgSO4, with a ⅝″-diameter tablet as described in EXAMPLE 1 were added to each tank as follows: • (a) Hex-1: 5 Black Skirt Tetras—3 tablets on day 1, 4 tablets on day 2 • (b) Hex-3: 5 Glow Lite Tetras—3 tablets on day 1, 3 tablets on day 2 • (c) Hex-4: 5 Glow Lite Tetras—2 tablets on day 1, 2 tablets on day 2
# (§3) Tanks Hex-1 and 2 measured above 6 ppm TAC each day, but took approximately three hours to reach a TAC above 6 ppm. HEX 4 rose to a TAC level of 4.1 ppm TAC within the first day. No fish died throughout the 48-hour experiment.
# [2] = tested on: GlowLite (Hemigrammus erthrozonus); test: Fish mortality, MC in ethanol vs MC tablets (Comparative Example 2); format: in vivo; conditions: of 11 Glow Lite Tetras, within three hours; 300 mg MC in 95% EtOH/water added at once, 6.0 ppm TAC
# Procedure: (§4) A study was performed in which GlowLite (Hemigrammus erthrozonus) and Black Skirt Tetras (Gymnocorymbus ternetzi) were subjected to treatment with MC dissolved in 95% Ethanol (then diluted with water) and another set of the same fish subjected to MC tablets as described in EXAMPLE 1 dosed to equal levels of MC.
# (§5) Part 1: Four 5-gallon hexagonal fish tanks were set up as follows: • (a) Hex-1: 5 Black Skirt Tetras (Control Tank—0 ppm TAC) • (b) Hex-2: 5 Black Skirt Tetras (Experimental Tank) • (c) Hex-3: 11 Glow Lite Tetras (Control Tank—0 ppm TAC) • (d) Hex-4: 11 Glow Lite Tetras (Experimental Tank)
# as §1
# (§6) Part 2: Three 5-gallon hexagonal fish tanks were set up as follows: • (a) Hex-1: 5 Black Skirt Tetras • (b) Hex-3: 5 Glow Lite Tetras • (c) Hex-4: 5 Glow Lite Tetras
# as §2, §3
# [3] = tested on: Black Skirt Tetras (Gymnocorymbus ternetzi); test: as above; format: in vivo; conditions: 300 mg MC in 95% EtOH/water added at once, 7.1 ppm TAC
# Procedure: as §4, §5, §1, §6, §2, §3
smiles,measurement,setting,value
"CC1(C)NC(=O)C(C)(C)N1Cl [MC, 1-Chloro-2,2,5,5-tetramethylimidazolidin-4-one]",TAC in experimental tank,[1]; HEX-2 (Black Skirt Tetras),7.1 ppm TAC
same,TAC in experimental tank,[1]; HEX-4 (Glow Lite Tetras),6.0 ppm TAC
same,dead fish,[2],11
same,dead fish,[3]; within 24 hours,the remainder of the Black Skirt Tetras were dead
same,dead fish,[3]; within three hours,3 out of 5
